Measured values reported in article PMC6222847, “Application of HPCCC Combined with Polymeric Resins and HPLC for the Separation of Cyclic Lipopeptides Muscotoxins A–C and Their Antimicrobial Activity” (Molecules : A Journal of Synthetic Chemistry and Natural …, 2018).
Values after ≈ are worked out from the molar mass of the structure shown. *1 amine or outer side, *2 acyl side, *3 side chain or, on linkers, in order; H or OH if unused. Where a SMILES comes first, the peptide text is derived from it. [ ]: non-standard residue; d: D form. X1 = CCCCCC(O)CC(N[*:1])C(O)C(=O)[*:2]; d(aIle) = CC[C@H](C)[C@@H](N)C(=O)O; Dhb = C/C=C(\N)C(=O)O

Tests used:
[1] = tested on: Bacillus subtilis; assay: Broth two-fold microdilution; type: cell-based; details: B. subtilis CCM1999; Mueller Hinton broth, 300–0.0732 µg/mL (control 32–0.0625), 37 °C 16 h, triplicate; MIC = least concentration showing any inhibition in the growth
Procedure: Furthermore, compound 1 was evaluated for its antimicrobial activity against five bacterial isolates; S. aureus (CCM3824), B. subtilis (CCM1999), S. sanguinis (CCM4047), P. aeruginosa (CCM1959), E. coli (CCM2024), and eight fungal isolates; C. friedrichii (BCC020_2879), A. fumigatus (BCC020_2845), F. oxysporum (BCC020_2866), T. harzianum (BCC020_0606), B. sorokiniana (BCC020_1571), M. cucumerina (BCC020_2872), C. globosum (BCC020_2527), and A. alternata (BCC020_0609) using broth two-fold microdilution method following the standard protocol. Briefly, for broth microdilution method, the compounds were serially diluted at varying concentrations between 300 and 0.0732 µg/mL in Mueller Hinton broth (for bacteria) and Muller Hinton broth with 2% glucose (for fungi) in 96-well plates. Culture broth (0.1 mL) was added to each well containing the compound. […] MIC95 was determined as the concentration required to inhibit or kill 95% of bacterial isolates spectroscopically at 600 nm. Minimum fungicidal concentration (MFCs) were determined after 48 h incubation by removing 10 µL of the contents from wells showing no visible growth and spreading them on to Sabouraud dextrose agar plates. The plates were then incubated for 72 h and MFCs were determined as the concentrations which killed 95–100% of the inoculum. […]

[2] = Partition coefficient (K) in two-phase HPCCC solvent systems; type: physicochemical; details: 2 mg extract in 2 mL (1 mL per phase), HPLC-ESI-HRMS
Excerpt: When working with HPCCC, the search for a proper two-phase solvent system has been informed to represent the major part of the work involved in the HPCCC separation. An appropriate two-phase solvent system for HPCCC has to provide a good partition coefficient (0.5 ≤ K ≤ 2.5) for the target compound. […] Additionally, for achieving a good resolution between two closely eluting peaks, the separation factor (α) between the two compounds (α = K2/K1, K2 > K1) should be greater than 1.5 [14, 26]. It is well described that compounds with smaller K values show a poor resolution because they elute closer to the solvent front. On the contrary, those compounds with larger K value are better separated but elute as wider peaks and at later elution times. In the present study, the capacity of different two-phase solvent systems (Table 1) to provide suitable K values of the compounds 1–3 was investigated. The K value is frequently estimated by using HPLC with UV detection, which is calculated by dividing the peak area of the target compound in the upper phase by that of the peak area of the same target compound in the lower phase. However, given that UV chromatogram provided insufficient peak areas for minor muscotoxins, the MS detector was thus used to estimate the K values. By using this approach, the peak area of the molecular ions corresponding to the target compounds were selectively monitored from the base peak chromatogram. As presented in the Table 1, the solvent system 10 (n-hexane, ethyl acetate, ethanol, and water in a ratio of 1:5:1:5) gave suitable K values and a proper separation factor (α) for compounds 2 and 3, as well as a short settling time. […] The improvement of the K value of compound 1 could be achieved by finding out a new solvent system or by modifying the composition of the already selected solvent system. In the present study, the system 10 was acidified by adding acetic acid leading to the system 11 (n-hexane, ethyl acetate, ethanol, water, and acetic acid, 1:5:1:5:1). […] Although the partition coefficients of the target compounds in systems 10 and 11 are strongly correlated, the system 10 ensured a sufficient selectivity (α = 1.5) between the compounds 2 and 3. […] In HPCCC, it is very well established that when the retention of stationary phase is increased, a good chromatographic resolution is achieved. A reduced flow rate of the mobile phase and a high rotational speed of the column favor the retention of the stationary phase inside the HPCCC column. In this study, the flow rate of the mobile phase in the first step and second step of the HPCCC operations was 1 mL/min and the rotational speed was set at 1200 rpm. Moreover, it was observed that a good resolution between the compounds 2 and 3 was achieved when injecting 100 mg of enriched extract.
Different two-phase solvent systems were prepared using n-hexane, ethyl acetate, ethanol, water, and acetic acid in different proportions (Table 1). The prepared solvent systems were investigated for their capacity to provide suitable partition coefficients (K) of the target compounds. In addition, given that the settling time as well as the density difference between the upper and lower phases of each two-phase solvent system are parameters associated with the retention of stationary phase in the column, they were thus estimated and used as selection criteria. For estimating the partition coefficient (Table 1) of the target compound, 2 mg of extract containing the target compounds was dissolved in 2 mL of a given two-phase solvent system (1 mL per each phase). The test tube containing the sample solution was shaken vigorously, and then left, to equilibrate the two phases, for 20 min. Equal volumes of each phase were then analyzed by HPLC-ESI-HRMS to obtain the partition coefficients (K), which were calculated by dividing the peak area of the target compound in the upper phase by the peak area of compound in the lower phase.

## C/C=C1\NC(=O)[C@H](CO)NC(=O)[C@@H]([C@@H](C)CC)NC(=O)[C@H](Cc2ccccc2)NC(=O)[C@@H]2CCCN2C(=O)CNC(=O)[C@@H](CCC(N)=O)NC(=O)C(O)C(CC(O)CCCCC)NC(=O)[C@@H]2CCCN2C(=O)[C@@H]([C@@H](C)CC)NC(=O)[C@H](CO)NC1=O (stereo partly drawn) [compound 2, muscotoxin A] (cyclo([Dhb]S[d(aIle)]P[X1][dQ]GPF[d(aIle)]S))
[1]
  MIC: 37.5 µg/mL (≈ 31 µM)
[2]; solvent system 1, n-Hex–EtOH–H2O 10:5:5, shake test tube, equilibrated 20 min, K = peak area upper phase/lower phase
  Partition Coefficient (K) of Muscotoxins: 0.03
[2]; solvent system 2, n-Hex–EtOAc–EtOH–H2O 9:1:5:5, shaken, 20 min, K = peak area UP/LP
  Partition Coefficient (K) of Muscotoxins: 0.03
[2]; solvent system 3, n-Hex–EtOAc–EtOH–H2O 8:2:5:5, shaken, 20 min, K = peak area UP/LP
  Partition Coefficient (K) of Muscotoxins: 0.01
[2]; solvent system 4, n-Hex–EtOAc–EtOH–H2O 7:3:5:5, shaken, 20 min, K = peak area UP/LP
  Partition Coefficient (K) of Muscotoxins: 0.06
[2]; solvent system 5, n-Hex–EtOAc–EtOH–H2O 6:4:5:5, shaken, 20 min, K = peak area UP/LP
  Partition Coefficient (K) of Muscotoxins: 0.09
[2]; solvent system 6, n-Hex–EtOAc–EtOH–H2O 5:5:5:5, shaken, 20 min, K = peak area UP/LP
  Partition Coefficient (K) of Muscotoxins: 0.01
[2]; solvent system 7, n-Hex–EtOAc–EtOH–H2O 4:5:4:5, shaken, 20 min, K = peak area UP/LP
  Partition Coefficient (K) of Muscotoxins: 0.14
[2]; solvent system 8, n-Hex–EtOAc–EtOH–H2O 3:5:3:5, shaken, 20 min, K = peak area UP/LP
  Partition Coefficient (K) of Muscotoxins: 0.32
[2]; solvent system 9, n-Hex–EtOAc–EtOH–H2O 2:5:2:5, shaken, 20 min, K = peak area UP/LP
  Partition Coefficient (K) of Muscotoxins: 0.97
[2]; solvent system 10, n-Hex–EtOAc–EtOH–H2O 1:5:1:5, shaken, 20 min, K = peak area UP/LP
  Partition Coefficient (K) of Muscotoxins: 0.94
[2]; solvent system 11, n-Hex–EtOAc–EtOH–H2O–AcOH 1:5:1:5:1, shaken, 20 min, K = peak area UP/LP
  Partition Coefficient (K) of Muscotoxins: 1.97
